Measured values as given in PubChem BioAssay AID250 (DTP/NCI, 2004).
Where “and” joins values, the source holds several entries; their conditions need not be identical. Equal entries are not always repeated. Toxic doses and inconclusive results are not listed.

Test system: BDF1 mice, L1210 leukemia sc, survival T/C
Assay: NCI In Vivo Anticancer Drug Screen. Data for tumor model L1210 Leukemia (subcutaneous) in B6D2F1 (BDF1) mice
Conditions: higher = longer survival
Summary of the method: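 Expressed as T/C: measurement in compound-treated, tumor-bearing mice relative to vehicle-treated control mice, based on survival or tumor size.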

[1] = endpoint: median survival time, dose: 108.0 mg/kg/injection, schedule: Q01DX Z (sc), vehicle: saline
[2] = endpoint: median survival time, dose: 108.0 mg/kg/injection, schedule: Q01DX Z (sc), vehicle: methylcellulose (MC)
[3] = endpoint: median survival time, dose: 14.0 mg/kg/injection, schedule: Q01DX Z (sc), vehicle: saline
[4] = endpoint: median survival time, dose: 65.0 mg/kg/injection, schedule: Q01DX Z (sc), vehicle: saline
[5] = endpoint: median survival time, dose: 38.9 mg/kg/injection, schedule: Q01DX Z (sc), vehicle: methylcellulose (MC)
[6] = endpoint: median survival time, dose: 23.0 mg/kg/injection, schedule: Q01DX Z (sc), vehicle: water

Structure (SMILES): O=c1[nH]cc(Br)c(=O)[nH]1
- T/C (endpoint: median survival time, dose: 38.9 mg/kg/injection, schedule: Q01DX Z (sc), vehicle: saline): 91 % of control
- T/C (endpoint: median survival time, dose: 64.8 mg/kg/injection, schedule: Q01DX Z (sc), vehicle: saline): 95 % of control
- T/C [1]: 100 % of control
- T/C (endpoint: median survival time, dose: 180.0 mg/kg/injection, schedule: Q01DX Z (sc), vehicle: saline): 100 % of control
- T/C (endpoint: median survival time, dose: 300.0 mg/kg/injection, schedule: Q01DX Z (sc), vehicle: saline): 100 % of control
- T/C (endpoint: median survival time, dose: 500.0 mg/kg/injection, schedule: Q01DX Z (sc), vehicle: saline): 100 % of control

Structure (SMILES): COc1cc(NS(C)(=O)=O)ccc1Nc1c2cccc(C)c2nc2c(C)cccc12
- T/C (endpoint: mean survival time, dose: 6.25 mg/kg/injection, schedule: Q01DX009 (ip), vehicle: Klucel (hydroxypropylcellulose) (HPC)): 100 % of control
- T/C (endpoint: mean survival time, dose: 12.5 mg/kg/injection, schedule: Q01DX009 (ip), vehicle: Klucel (hydroxypropylcellulose) (HPC)): 103 % of control
- T/C (endpoint: mean survival time, dose: 25.0 mg/kg/injection, schedule: Q01DX009 (ip), vehicle: Klucel (hydroxypropylcellulose) (HPC)): 102 % of control
- T/C (endpoint: mean survival time, dose: 50.0 mg/kg/injection, schedule: Q01DX009 (ip), vehicle: Klucel (hydroxypropylcellulose) (HPC)): 103 % of control

Structure (SMILES): CCC(=O)NC1=C(N2CC2)C(=O)C(NC(=O)CC)=C(N2CC2)C1=O
- T/C (endpoint: median survival time, dose: 1.08 mg/kg/injection, schedule: Q01DX Z (sc), vehicle: methylcellulose (MC)): 110 % of control
- T/C (endpoint: median survival time, dose: 1.8 mg/kg/injection, schedule: Q01DX Z (sc), vehicle: methylcellulose (MC)): 110 % of control

Structure (SMILES): O=C(O)CS
- T/C (endpoint: median survival time, dose: 39.0 mg/kg/injection, schedule: Q01DX Z (sc), vehicle: methylcellulose (MC)): 100 % of control
- T/C (endpoint: median survival time, dose: 65.0 mg/kg/injection, schedule: Q01DX Z (sc), vehicle: methylcellulose (MC)): 100 % of control
- T/C [2]: 100 % of control

Structure (SMILES): CCCCCCCCCCCCCCCC(=O)OCC1OC(n2ccc(N)nc2=O)C(O)C1O (centres undefined)
- T/C (endpoint: median survival time, dose: 9.38 mg/kg/injection, schedule: Q01DX009 (ip), vehicle: saline): 211 % of control
- T/C (endpoint: median survival time, dose: 9.38 mg/kg/injection, schedule: Q01DX009 (sc), vehicle: saline): 177 % of control
- T/C (endpoint: median survival time, dose: 18.75 mg/kg/injection, schedule: Q01DX009 (ip), vehicle: saline): 233 % of control
- T/C (endpoint: median survival time, dose: 18.75 mg/kg/injection, schedule: Q01DX009 (sc), vehicle: saline): 233 % of control
- T/C (endpoint: median survival time, dose: 18.75 mg/kg/injection, schedule: Q04DX003 (sc), vehicle: saline): 183 % of control
- T/C (endpoint: median survival time, dose: 37.5 mg/kg/injection, schedule: Q01DX001 (ip), vehicle: saline): 155 % of control
- T/C (endpoint: median survival time, dose: 37.5 mg/kg/injection, schedule: Q01DX001 (sc), vehicle: saline): 161 % of control
- T/C (endpoint: median survival time, dose: 37.5 mg/kg/injection, schedule: Q01DX009 (sc), vehicle: saline): 188 % of control
- T/C (endpoint: median survival time, dose: 37.5 mg/kg/injection, schedule: Q04DX003 (ip), vehicle: saline): 216 % of control
- T/C (endpoint: median survival time, dose: 37.5 mg/kg/injection, schedule: Q04DX003 (sc), vehicle: saline): 233 % of control
- T/C (endpoint: median survival time, dose: 75.0 mg/kg/injection, schedule: Q01DX001 (ip), vehicle: saline): 194 % of control
- T/C (endpoint: median survival time, dose: 75.0 mg/kg/injection, schedule: Q01DX001 (sc), vehicle: saline): 95 % of control and 98 % of control and 233 % of control
- T/C (endpoint: median survival time, dose: 75.0 mg/kg/injection, schedule: Q01DX009 (sc), vehicle: saline): 150 % of control
- T/C (endpoint: median survival time, dose: 75.0 mg/kg/injection, schedule: Q04DX003 (ip), vehicle: saline): 227 % of control
- T/C (endpoint: median survival time, dose: 75.0 mg/kg/injection, schedule: Q04DX003 (sc), vehicle: saline): 244 % of control
- T/C (endpoint: median survival time, dose: 150.0 mg/kg/injection, schedule: Q01DX001 (ip), vehicle: saline): 255 % of control
- T/C (endpoint: median survival time, dose: 150.0 mg/kg/injection, schedule: Q01DX001 (sc), vehicle: saline): 95 % of control and 98 % of control and 238 % of control
- T/C (endpoint: median survival time, dose: 150.0 mg/kg/injection, schedule: Q01DX009 (ip), vehicle: saline): 122 % of control
- T/C (endpoint: median survival time, dose: 150.0 mg/kg/injection, schedule: Q04DX003 (ip), vehicle: saline): 177 % of control
- T/C (endpoint: median survival time, dose: 150.0 mg/kg/injection, schedule: Q04DX003 (sc), vehicle: saline): 150 % of control
- T/C (endpoint: median survival time, dose: 600.0 mg/kg/injection, schedule: Q01DX001 (ip), vehicle: saline): 116 % of control

Structure (SMILES): CN(N=O)C(=O)Nc1c[nH]c(=O)[nH]c1=O
- T/C [3]: 90 % of control
- T/C (endpoint: median survival time, dose: 23.0 mg/kg/injection, schedule: Q01DX Z (sc), vehicle: saline): 100 % of control
- T/C (endpoint: median survival time, dose: 39.0 mg/kg/injection, schedule: Q01DX Z (sc), vehicle: saline): 105 % of control
- T/C [4]: 95 % of control
- T/C [1]: 100 % of control

Structure (SMILES): COc1cc2cc3c4cc(OC)c(OC)cc4cc[n+]3c(C)c2cc1OC
- T/C (endpoint: median survival time, dose: 100.0 mg/kg/injection, schedule: Q01DX009 (sc), vehicle: saline): 97 % of control and 100 % of control
- T/C (endpoint: median survival time, dose: 200.0 mg/kg/injection, schedule: Q01DX009 (sc), vehicle: saline): 97 % of control and 100 % of control
- T/C (endpoint: median survival time, dose: 400.0 mg/kg/injection, schedule: Q01DX009 (sc), vehicle: saline): 99 % of control and 100 % of control
- T/C (endpoint: median survival time, dose: 800.0 mg/kg/injection, schedule: Q01DX009 (sc), vehicle: saline): 100 % of control and 101 % of control
- T/C (endpoint: median survival time, dose: 1600.0 mg/kg/injection, schedule: Q01DX009 (sc), vehicle: saline): 97 % of control and 100 % of control

Structure (SMILES): CC(C)Sc1ncnc2nc[nH]c12
- T/C [5]: 110 % of control
- T/C (endpoint: median survival time, dose: 64.8 mg/kg/injection, schedule: Q01DX Z (sc), vehicle: methylcellulose (MC)): 155 % of control
- T/C [2]: 155 % of control

Structure (SMILES): CN(C)c1ccc(Nc2c3ccccc3nc3ccccc23)cc1
- T/C (endpoint: median survival time, dose: 93.0 mg/kg/injection, schedule: Q01DX Z (sc), vehicle: saline): 104 % of control
- T/C (endpoint: median survival time, dose: 155.0 mg/kg/injection, schedule: Q01DX Z (sc), vehicle: saline): 113 % of control
- T/C (endpoint: median survival time, dose: 259.0 mg/kg/injection, schedule: Q01DX Z (sc), vehicle: saline): 109 % of control
- T/C (endpoint: median survival time, dose: 432.0 mg/kg/injection, schedule: Q01DX Z (sc), vehicle: saline): 113 % of control

Structure (SMILES): CCN(CC)CCCC(C)Nc1c2ccc(Cl)cc2nc2ccc(OC)cc12 (centres undefined)
- T/C [6]: 90 % of control
- T/C (endpoint: median survival time, dose: 39.0 mg/kg/injection, schedule: Q01DX Z (sc), vehicle: water): 100 % of control
- T/C (endpoint: median survival time, dose: 65.0 mg/kg/injection, schedule: Q01DX Z (sc), vehicle: water): 100 % of control
- T/C (endpoint: median survival time, dose: 108.0 mg/kg/injection, schedule: Q01DX Z (sc), vehicle: water): 95 % of control
- T/C (endpoint: median survival time, dose: 180.0 mg/kg/injection, schedule: Q01DX Z (sc), vehicle: water): 100 % of control
- T/C (endpoint: median survival time, dose: 300.0 mg/kg/injection, schedule: Q01DX Z (sc), vehicle: water): 100 % of control

Structure (SMILES): N=[N+]=CC(=O)OCC(N)C(=O)O (centres undefined)
- T/C (endpoint: median survival time, dose: 3.0 mg/kg/injection, schedule: Q01DX Z (sc), vehicle: saline): 105 % of control
- T/C (endpoint: median survival time, dose: 4.0 mg/kg/injection, schedule: Q01DX Z (sc), vehicle: water): 110 % of control
- T/C (endpoint: median survival time, dose: 5.0 mg/kg/injection, schedule: Q01DX Z (sc), vehicle: saline): 110 % of control
- T/C (endpoint: median survival time, dose: 6.72 mg/kg/injection, schedule: Q01DX Z (sc), vehicle: water): 110 % of control
- T/C (endpoint: median survival time, dose: 8.0 mg/kg/injection, schedule: Q01DX Z (sc), vehicle: water): 172 % of control
- T/C (endpoint: median survival time, dose: 8.0 mg/kg/injection, schedule: Q02DX Z (sc), vehicle: water): 100 % of control
- T/C (endpoint: median survival time, dose: 8.4 mg/kg/injection, schedule: Q01DX Z (sc), vehicle: saline): 110 % of control
- T/C (endpoint: median survival time, dose: 11.2 mg/kg/injection, schedule: Q01DX Z (sc), vehicle: water): 110 % of control
- T/C [3]: 120 % of control
- T/C (endpoint: median survival time, dose: 16.0 mg/kg/injection, schedule: Q01DX Z (sc), vehicle: water): 168 % of control
- T/C (endpoint: median survival time, dose: 16.0 mg/kg/injection, schedule: Q02DX Z (sc), vehicle: water): 100 % of control
- T/C (endpoint: median survival time, dose: 31.1 mg/kg/injection, schedule: Q01DX Z (sc), vehicle: water): 120 % of control
- T/C (endpoint: median survival time, dose: 32.0 mg/kg/injection, schedule: Q02DX Z (sc), vehicle: water): 100 % of control
- T/C (endpoint: median survival time, dose: 64.0 mg/kg/injection, schedule: Q01DX Z (sc), vehicle: water): 118 % of control
- T/C [4]: 100 % of control
- T/C (endpoint: median survival time, dose: 86.1 mg/kg/injection, schedule: Q01DX Z (sc), vehicle: water): 110 % of control
- T/C (endpoint: median survival time, dose: 128.0 mg/kg/injection, schedule: Q02DX Z (sc), vehicle: water): 100 % of control

Structure (SMILES): O=C(Nc1ccc(S(=O)(=O)O)cc1)c1ccc([N+](=O)[O-])cc1
- T/C (endpoint: median survival time, dose: 8.4 mg/kg/injection, schedule: Q01DX Z (sc), vehicle: water): 155 % of control
- T/C (endpoint: median survival time, dose: 14.0 mg/kg/injection, schedule: Q01DX Z (sc), vehicle: water): 194 % of control
- T/C [6]: 150 % of control

Structure (SMILES): CCCCSc1ncnc2nc[nH]c12
- T/C (endpoint: median survival time, dose: 14.0 mg/kg/injection, schedule: Q01DX Z (sc), vehicle: methylcellulose (MC)): 90 % of control
- T/C (endpoint: median survival time, dose: 23.3 mg/kg/injection, schedule: Q01DX Z (sc), vehicle: methylcellulose (MC)): 100 % of control
- T/C [5]: 104 % of control
- T/C (endpoint: median survival time, dose: 500.0 mg/kg/injection, schedule: Q01DX Z (sc), vehicle: methylcellulose (MC)): 113 % of control
- T/C (endpoint: median survival time, dose: 833.0 mg/kg/injection, schedule: Q01DX Z (sc), vehicle: methylcellulose (MC)): 100 % of control
